Measurements as given in patent US4800201A, “1,4-thiazine derivative, and cardiotonic agent comprising it as effective component” (Zenyaku Kogyo Kabushiki Kaisha, priority 1984, dated 1989).

Legend:
[1] = tested on: isolated left atrium of guinea pig; experiment: Effect on isolated left atrium of guinea pig (Pharmacological Test 1, Table 1); design: species or system guinea pig (male Hartley); details: 1×10^-4 mole, electrically stimulated 0.5 cps, 30° to 32° C.
Description: Effect on isolated left atrium of guinea pig was tested according to the method described in Basic Lectures of Medicine Development, Volume V, Pharmacological Test Methods, Part 2, page 534 (1971) published by Chizin Shokan Kabushiki Kaisha in Japan. A 7-weeks-old male Hartley guinea pig (having body weight of about 350 g) was stunned by a blow on the head. The heart was cut out, and the left atrium was taken out in Krebs-Henseleit solution (prepared by adding distilled water for injection to 6.92 g of sodium chloride, 0.35 g of potassium chloride, 0.28 g of calcium chloride, 0.29 g of magnesium sulfate, 0.16 g of mono-basic potassium phosphate, 2.1 g of sodium bicarbonate and 1.8 g of glucose so that the total amount was 1000 ml) which was sufficiently bubbled with oxygen gas. The isolated left atrium was suspended in Magnus' bath at 30° to 32° C. and isometric contraction was recorded by the pen-writing oscillograph through the strain pressure amplifier connected to the force displacement pickup.
The atrium was stimulated electrically at 0.5 cps for 5 msec under a voltage of 20% above threshold. The nutritive liquid was Krebs-Henseleit solution through which 95% oxygen gas and 5% carbon dioxide was blown. Effect of each sample was tested 60 to 90 minutes after stimulation at which the generated tension became stable. In this test, corresponding concentration of each sample was 1×10^-4 mole.

[2] = Acute toxicity, Litchfield-Wilcoxon method (Pharmacological Test 3, Table 3); details: mouse, in vivo, ip; intraperitoneal injection, 6-weeks-old male ddY mice
Description: The acute toxicity was determined according to the Litchfield-Wilcoxon method, J. Pharm. Exp. Ther., 96, 99 […] using 6-weeks-old male ddY mice (having body weight of 19-24 g) while administrating the sample compound in intraperitonial injection.

isolated auricule = experiment: Effect on isolated auricule (Pharmacological Test 2, Table 2); design: species or system guinea pig (male Hartley); details: 3×10^-4 mole, 30°±1° C., recording 5 minutes; for activation at 300 µM: Cavia porcellus, 5 min, read-out: Increase in heart rate
Description: Effect on isolated auricule was tested according to the method of L. J. Mcleod described in Pharmacological Experiments on Intact Preparations, pages 112-115 (1970). A 7-weeks-old male Hartley guinea pig (having body weight of about 350 g) was killed by a blow on the head. The heart was cut out, and all the tissues except for the auricule were cut away in Ringer-Locke solution (prepared by adding distilled water for injection to 9.0 g of sodium chloride, 0.25 g of potassium chloride, 0.15 g of calcium chloride and 1.0 g of glucose so that the total amount was 1000 ml). One of cotton threads, which were tied to each tip of the auricule, is attached to Magnus' bath and the other to the force displacement pickup. The Magnus' bath was maintained at 30°±1° C. through which oxygen gas was bubbled. When the rhythmic movement and contraction of cardiac muscle became constant, recording by the pen-writing oscillograph was started. After 1 minute, sample compound was injected and recording was conducted for 5 minutes. After completion of recording, the isolated auricule was washed with Ringer-Locke solution until the rhythmic movement and contraction of cardiac muscle became constant. After 30 minutes, recording by the pen-writing oscillograph was started again. In this test, corresponding concentration of each sample was 3×10^-4 mole.

Compound | Tension increment [1] | LD50 [2] | Tension increment (isolated auricule) | activation at 300 µM (isolated auricule)
CC1=C(c2ccncc2)SC(N2CCOCC2)C(=O)N1 (stereo not shown) | 207 ± 47 mg | – | – | –
CC1=C(c2ccncc2)SC(c2ccc(O)cc2)C(=O)N1 (stereo not shown) | 230 ± 92 mg | – | – | –
CC1=C(c2ccnnc2)SCC(=O)N1 | 225 ± 123 mg | – | – | –
CC1=C(c2ccncc2Cl)SCC(=O)N1 | 426 ± 56 mg | – | – | –
CC1=C(c2ccncc2)SC(C)C(=O)N1 (stereo not shown) [2,5-dimethyl-6-(4-pyridinyl)-2H-1,4-thiazin-3(4H)-one] | 780 ± 93 mg | 230 mg/kg | 158 mg | 2%
CNC1SC(c2ccncc2)=C(C)NC1=O (stereo not shown) [5-methyl-2-methylamino-6-(4-pyridinyl)-2H-1,4-thiazin-3(4H)-one] | 233 ± 46 mg | – | – | –
CCC1SC(c2ccncc2)=C(C)NC1=O (stereo not shown) [2-ethyl-5-methyl-6-(4-pyridinyl)-2H-1,4-thiazin-3(4H)-one] | 925 ± 32 mg | 130 mg/kg | 226 mg | 2.4%
CC1=C(c2ccncc2C#N)SCC(=O)N1 | 214 ± 56 mg | – | – | –
CC1=C(c2ccncc2)SCC(=O)N1 [drawing 30] | – | 275 mg/kg | – | –
CC1=C(c2ccnc3ccccc23)SCC(=O)N1 [drawing 13] | 300 ± 125 mg | – | – | –
CC1=C(c2ccncc2C=O)SCC(=O)N1 | 278 ± 56 mg | – | – | –
CC1=C(c2ccncc2)SCC(=O)N1 [drawing 26] | – | – | 250 mg | 9.4%
CC1=C(c2ccnc3ccccc23)SCC(=O)N1 [drawing 29] | – | 270 mg/kg | – | –
CC1=C(c2ccnc3ccccc23)SCC(=O)N1 [drawing 25] | – | – | 190 mg | 2.2%
